According to US12171787B2, “Methods and compositions for modulating angiogenesis and vasculogenesis” (SanBio, Inc., priority 2012, dated 2024):

How the values were obtained:
[1] = tested on: human umbilical vein endothelial cells (HUVECs); test: HUVEC survival: propidium iodide staining of serum/growth factor-starved HUVECs; type: cell-based; settings: 50 nM SU5416 + SB623 cell-conditioned medium, five days, vs SB623 CM alone
Procedure: (§1) Cerebral ischemia can result in loss of nutrient supply to the affected area. To determine if soluble factors from SB623 cells and MSCs have restorative effects on nutrient-deprived endothelial cells, human umbilical vein endothelial cells (HUVECs) were cultured in medium depleted of serum and growth factors for 24 hours, then exposed to conditioned medium (CM) from MSCs or SB623 cells. Control cultures remained in serum- and growth factor-depleted medium without addition of CM. Viability and proliferative capacity of the HUVECs were then assessed.
(§2) For these experiments, human umbilical vein endothelial cells were passed twice, then 7.5×10^5 cells were plated in EBM-2/ECGS medium (Endothelial Basal Medium-2/Endothelial Cell Growth Supplements; Lonza, Walkersville, MD) on T-75 flasks coated with 0.1% gelatin and cultured for 24 hours. The HUVEC monolayers were rinsed twice with warm PBS and incubated with 12 ml of fresh EBM-2 medium overnight at 37° C., 5% CO2. Effects of CM were then assessed by withdrawing 6 ml of medium from each flask, and replacing it with 6 ml fresh OptiMEM (control), 6 ml MSC conditioned medium, or 6 ml SB623 cell conditioned medium (conditioned media prepared as described in Example 1). […]
To quantify cell death, cells were stained with propidium iodide (PI), since dead cells are permeable to PI. […]

[2] = tested on: human umbilical vein endothelial cells (HUVECs); test: HUVEC proliferation: fraction of Ki67-expressing cells by flow cytometry; type: cell-based; settings: 50 nM SU5416 + SB623 cell conditioned medium, five days
Procedure: Ki67 is a protein present in cells exiting from the GO (quiescent) phase of the cell cycle; therefore Ki67 levels can be used as a measure of cell proliferation. The fraction of cells expressing Ki67 protein was measured in HUVECs that had been starved for serum and growth factors, then cultured with conditioned medium from either MSCs or SB623 cells.
For Ki67 measurement, HUVECs were cultured and exposed to CM as described in Example 2. Cells were fixed in 4% paraformaldehyde and permeabilized with 0.1% Triton-X100 for one hour. Following permeabilization, cells were stained for one hour on ice with fluorescein-conjugated anti-KI67 antibody, then samples were washed, acquired, and analyzed on the FL-1 channel of a BD FACSCalibur. Cells exposed to fluorescein-conjugated IgG were used as a negative control. For these assays, 3 different human donor pairs were tested.
The effect of the VEGF receptor inhibitor on stimulation of HUVEC proliferation by SB623 cell factors was also assessed. Assays for expression of Ki67 were conducted as described in Example 3, except that 50 nM SU5416 was added to cultures 30 minutes before addition of conditioned medium, and cells were cultured for five days, instead of seven, before assay.

aortic rings = test: Aortic ring assay (vessel outgrowth and branching); type: cell-based, Sprague-Dawley rats; settings: 50 nM SU5416, rat aortic rings, 10 days
Excerpt: Restoration of vasculature after ischemic injury requires that surviving endothelial cells receive signals that prompt their migration and invasion. Such signals may arise from vascular smooth muscle cells, monocytes, and/or macrophages, among others. To test for secretion of factors involved in vessel sprouting and branching, the aortic ring assay was used. See, for example, Nicosia & Ottinetti (1990) Lab. Invest. 63:115-122 and Nicosia (2009) J. Cell. Mol. Med. 13:4113-4136.
For preparation of aortic rings, adult Sprague-Dawley rats were euthanized prior to dissection. After clamping off its two ends, the aorta was removed and placed in ice-cold α-MEM/pen-strep medium prior to removal of the external adipose layer. Adipose-free aorta was rinsed twice with ice-cold EBM-2/pen-strep medium before being sectioned into rings of 1.0 mm thickness. […]
To assess the angiogenic activity of MSC- and SB623-derived factors, phase contrast photographs were taken on Day 10, and results were quantified by an experimenter blinded to the group, by counting vessel outgrowth and branching. Growth of new vessels was quantitated by measuring the number of vessels growing out from the ring; and vessel branching was quantitated by measuring the number of branchpoints present in vessels growing out from the aortic ring. […]

HUVECs = test: HUVEC tube formation assay; type: cell-based, human
Excerpt: A HUVEC tube formation assay was used to test the ability of MSCs and SB623 cells to elaborate factors that stimulate vessel formation. See, for example, E J Smith & C A Staton, “Tubule formation assays,” in Angiogenesis Assays—A Critical Appraisal of Current Techniques, (Staton, Lewis & Bicknell, eds.). John Wiley & Sons, Ltd., West Sussex, UK, pp. 65-87, 2006; and Goodwin (2007) Microvasc. Res. 74:172-183.
HUVECs were passed five times in EBM-2/ECGS medium, then transferred to alpha-MEM/0.5% FBS/2 mM glutamine/pen-strep, at a density of 1×10^5 cells/ml. After 24 hours, HUVECs were harvested using 0.25% trypsin-EDTA, rinsed, and resuspended in α-MEM/2 mM glutamine/pen-strep at a density of 1×10^5 cells/ml. A mixture of 75 ul of HUVECs plus 75 ul of either MSC- or SB623-conditioned medium (Example 1), or 75 ul OptiMEM medium as a negative control, was added to each well of a 96-well plate that had been pre-treated by adding 50 ul of Reduced Growth Factor (RGF)-basement gel (Invitrogen, Carslsbad, CA) per well and incubating the plates at 37° C. for 45 minutes. For this assay, MSCs were obtained from 3 different human donors, and a portion of the MSCs from each donor were converted to SB623 cells.
After 16 hours, the cultures were examined by phase contrast microscopy and photographed. The number of complete tubes (formed by contiguous cells) was quantified by an experimenter blinded to the group. […] Thus, MSCs and SB623 cells secrete factors that promote vasculogenesis.
HUVEC tube formation assays with conditioned medium from MSCs and SB623 cells were conducted as described in Example 4, in the presence and absence of the VEGF2 receptor inhibitor SU5416.
Quantitation of tube formation was conducted, as described in Example 4, for HUVECs exposed to SB623 cell conditioned medium in the presence and absence of SU5416, at 16 and 40 hours after plating.

[3] = tested on: human umbilical vein endothelial cells (HUVECs); test: HUVEC survival: fraction of Bcl-2-expressing cells by flow cytometry; type: cell-based; settings: 50 nM SU5416 + SB623 cell-conditioned medium, five days, vs SB623 CM alone
Procedure: as §1
as §2, with “The HUVEC monolayers were rinsed twice with warm PBS and incubated with 12 ml of fresh EBM-2 medium overnight at 37° C., 5% CO2.” left out
Bcl-2 is an anti-apoptotic protein originally identified as being overexpressed in certain B-cell lymphomas. Accordingly, the fraction of cells expressing the Bcl-2 protein was measured in serum/growth factor-starved HUVECs as an indicator of their apoptotic potential. […]

Row | Molecule | propidium iodide uptake by HUVECs in SB623 conditioned medium plus inhibitor [1] | effect on enhancement of HUVEC proliferation (Ki67) by SB623 conditioned medium [2] | vessel outgrowth and branching in SB623 cell-conditioned medium plus inhibitor (aortic rings) | effect on positive effect of SB623 CM on tube formation (quantitation) (HUVECs; 50 nM SU5416, 16 and 40 hours after plating) | effect on stimulation of tube formation by VEGF, MSC-CM and SB623-CM (HUVECs; 50 nM SU5416, 16 hours) | Bcl-2 expression by HUVECs in SB623 conditioned medium plus inhibitor [3] | tube formation by HUVECs (positive control) (HUVECs; 10 ng/ml VEGF, 16 hours)
1 | Cc1cc(C)c(/C=C2\C(=O)Nc3ccccc32)[nH]1 [SU5416] | more cells take up PI | partially reversed | reduced | completely reversed | reduces the stimulation of tube formation | fewer cells express | –
2 | VEGF | – | – | – | – | – | – | promote tube formation
